Assay results reported in patent US11254668B2, “Pyrazolo[1,5-A]pyrazin-4-yl and related derivatives” (Pfizer Inc., priority 2017, dated 2022).

Tests used:
Assay type in all cases: biochemical
[1] = biological target: TYK2 (Homo sapiens (Human), UniProt P29597); assay: JAK Caliper Enzyme Assay at 1 mM ATP, TYK2
How it was run: (§1)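 Human recombinant kinase domain + fluorescently labelled synthetic peptide, 1 mM ATP, RT; enzyme level/time set for 20–30% phosphorylation. EDTA stop. LabChip separation, peak-height % conversion, % effect vs plate controls.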

[2] = biological target: JAK2 (Homo sapiens (Human), UniProt O60674); assay: JAK Caliper Enzyme Assay at 1 mM ATP, JAK2
Chain of JAK2 (O60674 849-1124): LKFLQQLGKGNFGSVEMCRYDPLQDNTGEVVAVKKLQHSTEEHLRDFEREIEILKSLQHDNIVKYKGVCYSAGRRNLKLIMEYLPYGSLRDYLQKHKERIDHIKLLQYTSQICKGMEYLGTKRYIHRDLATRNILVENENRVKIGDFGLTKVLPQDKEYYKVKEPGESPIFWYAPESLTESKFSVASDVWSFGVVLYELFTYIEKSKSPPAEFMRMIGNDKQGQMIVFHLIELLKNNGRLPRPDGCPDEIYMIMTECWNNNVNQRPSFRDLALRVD
How it was run: as §1

[3] = biological target: JAK1 (Homo sapiens (Human), UniProt P23458); assay: JAK Caliper Enzyme Assay at 1 mM ATP, JAK1
Chain of JAK1 (P23458 875-1153): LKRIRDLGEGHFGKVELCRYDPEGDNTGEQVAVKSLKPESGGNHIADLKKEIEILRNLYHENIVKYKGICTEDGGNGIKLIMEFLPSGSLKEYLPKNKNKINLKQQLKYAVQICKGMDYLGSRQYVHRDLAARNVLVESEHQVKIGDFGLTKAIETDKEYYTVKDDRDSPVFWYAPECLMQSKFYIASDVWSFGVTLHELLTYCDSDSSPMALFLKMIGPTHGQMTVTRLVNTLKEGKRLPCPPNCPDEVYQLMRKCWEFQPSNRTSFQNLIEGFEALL
How it was run: (§2)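 IC50 (nM) derived from percent conversion of fluorescently labelled peptide, measured by Caliper LabChip mobility-shift separation after EDTA stop. Each JAK family kinase domain (human, recombinant) run at 1 mM ATP and room temperature, conditions set to 20-30% product; DMSO wells define uninhibited baseline.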

[4] = biological target: JAK3 (Homo sapiens (Human), UniProt P52333); assay: JAK Caliper Enzyme Assay at 1 mM ATP, JAK3
Chain of JAK3 (P52333 822-1111): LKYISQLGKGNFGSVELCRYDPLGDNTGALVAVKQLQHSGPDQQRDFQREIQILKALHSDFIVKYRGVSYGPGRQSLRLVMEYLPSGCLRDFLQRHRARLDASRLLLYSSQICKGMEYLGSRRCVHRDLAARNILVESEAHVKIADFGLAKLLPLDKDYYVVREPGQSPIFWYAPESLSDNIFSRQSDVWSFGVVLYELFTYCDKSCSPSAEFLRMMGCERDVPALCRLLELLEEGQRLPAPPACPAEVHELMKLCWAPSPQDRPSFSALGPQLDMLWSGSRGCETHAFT
How it was run: as §2

Chain of TYK2 (P29597 897-1176): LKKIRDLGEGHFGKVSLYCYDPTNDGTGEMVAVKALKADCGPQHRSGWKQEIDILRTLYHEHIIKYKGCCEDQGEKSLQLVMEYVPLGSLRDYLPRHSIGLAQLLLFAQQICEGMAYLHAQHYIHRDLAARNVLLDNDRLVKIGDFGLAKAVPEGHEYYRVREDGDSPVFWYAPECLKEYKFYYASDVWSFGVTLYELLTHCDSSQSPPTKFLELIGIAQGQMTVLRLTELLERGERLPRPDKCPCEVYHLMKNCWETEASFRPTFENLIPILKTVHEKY

Question: With `Cc1cncc(-c2cc3ncccc3c(-c3ccn(C4(CC#N)CN(CC(F)(F)F)C4)n3)n2)c1` [Example 173, [3-{3-[7-(5-methylpyridin-3-yl)-1,6-naphthyridin-5-yl]-1H-pyrazol-1-yl}-1-(2,2,2-trifluoroethyl)azetidin-3-yl]acetonitrile] as the compound, how does the IC50 [1] read?
Answer: 1880 nM

Question: What about the IC50 [2] of the same compound?
Answer: 7880 nM

Question: What about the IC50 [3] of the same compound?
Answer: > 10000 nM

Question: And the IC50 [4]?
Answer: > 10 µM

Question: What does the source list for `Cc1cc(-c2cc3ncccc3c(-c3ccn(C4(CC#N)CN(S(C)(=O)=O)C4)n3)n2)ccn1` [Example 174, [3-{3-[7-(2-methylpyridin-4-yl)-1,6-naphthyridin-5-yl]-1H-pyrazol-1-yl}-1-(methylsulfonyl)azetidin-3-yl]acetonitrile]?
Answer: IC50 [1]: 49 nM; IC50 [2]: 332 nM; IC50 [3]: 785 nM; IC50 [4]: > 10 µM

Question: With `Cc1ccc(-c2cc3ncccc3c(-c3ccn(C4(CC#N)CN(S(C)(=O)=O)C4)n3)n2)cn1` [Example 175, [3-{3-[7-(6-methylpyridin-3-yl)-1,6-naphthyridin-5-yl]-1H-pyrazol-1-yl}-1-(methylsulfonyl)azetidin-3-yl]acetonitrile] as the compound, how does the IC50 [1] read?
Answer: 135 nM

Question: What about the IC50 [2] of the same compound?
Answer: 1180 nM

Question: What about the IC50 [3] of the same compound?
Answer: 5740 nM

Question: What about the IC50 [4] of the same compound?
Answer: > 10 µM

Question: Which results are given for `Cc1cc(-c2cc3ncccc3c(-c3ccn(C4(CC#N)CN(CC(F)(F)F)C4)n3)n2)ccn1` [Example 176, [3-{3-[7-(2-methylpyridin-4-yl)-1,6-naphthyridin-5-yl]-1H-pyrazol-1-yl}-1-(2,2,2-trifluoroethyl)azetidin-3-yl]acetonitrile]?
Answer: IC50 [1]: 71 nM; IC50 [2]: 634 nM; IC50 [3]: 966 nM; IC50 [4]: > 10 µM

Question: `Cc1ccc(-c2cc3ncccc3c(-c3ccn(C4(CC#N)CN(CC(F)(F)F)C4)n3)n2)cn1` [Example 177, [3-{3-[7-(6-methylpyridin-3-yl)-1,6-naphthyridin-5-yl]-1H-pyrazol-1-yl}-1-(2,2,2-trifluoroethyl)azetidin-3-yl]acetonitrile] was tested. Which IC50 [1] did it give?
Answer: 58 nM

Question: What about the IC50 [2] of the same compound?
Answer: 794 nM

Question: What about the IC50 [3] of the same compound?
Answer: 2610 nM

Question: And the IC50 [4]?
Answer: > 10 µM

Question: For `N#CCC1(n2ccc(-c3nc(-c4cncc(F)c4)cc4ncccc34)n2)CN(CC(F)(F)F)C1` [Example 178, [3-{3-[7-(5-fluoropyridin-3-yl)-1,6-naphthyridin-5-yl]-1H-pyrazol-1-yl}-1-(2,2,2-trifluoroethyl)azetidin-3-yl]acetonitrile], which IC50 [1] is on record?
Answer: 1370 nM

Question: And the IC50 [2]?
Answer: 6780 nM

Question: What about the IC50 [3] of the same compound?
Answer: > 10000 nM

Question: And the IC50 [4]?
Answer: > 10 µM

Question: Which IC50 [1] does the source give for `N#CCC1(n2ccc(-c3nc(-c4ccncc4F)cc4ncccc34)n2)CN(CC(F)(F)F)C1` [Example 179, [3-{3-[7-(3-fluoropyridin-4-yl)-1,6-naphthyridin-5-yl]-1H-pyrazol-1-yl}-1-(2,2,2-trifluoroethyl)azetidin-3-yl]acetonitrile] here?
Answer: 285 nM

Question: And the IC50 [2]?
Answer: 9670 nM

Question: And the IC50 [3]?
Answer: > 10000 nM

Question: And the IC50 [4]?
Answer: > 10 µM

Question: For `N#CC[C@]1(n2ccc(-c3nc(-c4cccc(O)n4)cc4ncccc34)n2)C[C@@H](C#N)C1` [Example 181, cis-3-(cyanomethyl)-3-{3-[7-(6-hydroxypyridin-2-yl)-1,6-naphthyridin-5-yl]-1H-pyrazol-1-yl}cyclobutanecarbonitrile], which IC50 [1] is on record?
Answer: 40 nM

Question: And the IC50 [2]?
Answer: 123 nM

Question: And the IC50 [3]?
Answer: 853 nM

Question: What about the IC50 [4] of the same compound?
Answer: > 10 µM

Question: With `N#CC[C@]1(n2ccc(-c3nc(-c4cccc(O)n4)cc4ncccc34)n2)C[C@H](C#N)C1` [Example 182, trans-3-(cyanomethyl)-3-{3-[7-(6-hydroxypyridin-2-yl)-1,6-naphthyridin-5-yl]-1H-pyrazol-1-yl}cyclobutanecarbonitrile] as the compound, how does the IC50 [1] read?
Answer: 53 nM

Question: What about the IC50 [2] of the same compound?
Answer: 224 nM

Question: What about the IC50 [3] of the same compound?
Answer: 2020 nM

Question: And the IC50 [4]?
Answer: > 10 µM

Question: `N#CCC1(n2ccc(-c3nc(-c4ccc(O)nc4)cc4ncccc34)n2)CN(CC(F)(F)F)C1` [Example 183, [3-{3-[7-(6-hydroxypyridin-3-yl)-1,6-naphthyridin-5-yl]-1H-pyrazol-1-yl}-1-(2,2,2-trifluoroethyl)azetidin-3-yl]acetonitrile] was tested. Which IC50 [1] did it give?
Answer: 21 nM

Question: And the IC50 [2]?
Answer: 397 nM

Question: What about the IC50 [3] of the same compound?
Answer: 384 nM

Question: And the IC50 [4]?
Answer: > 10 µM
